Where two headings read alike, the source gives them in different places.
Legend:
[1] = Effect of relative BMIPP/IPP mass ratios on biodistribution properties in rats; assay type: in vivo; conditions: ratios of up to 6:1
Excerpt: Nevertheless, in the present experiment, the mass of each fatty acid injected was very similar to eliminate any effects of possible synergistic action on myocardial uptake. […] Within a few minutes following injection, however, differences in retention are clearly evident in fasted animals.

[2] = Triple-label experiment, (123I)DMIPP/(131I)BMIPP/(125I)IPP mixture in fasted rats; assay type: in vivo, fasted female Fischer rats; conditions: for initial uptake or "extraction" phase (myocardial): DMIPP, BMIPP and IPP compared
Excerpt: Nevertheless, in the present experiment, the mass of each fatty acid injected was very similar to eliminate any effects of possible synergistic action on myocardial uptake.

[3] = Myocardial uptake/retention and heart:blood ratio, DMIPP compared with monomethyl BMIPP and IPP; conditions: after 60 min
Description: (§4) Iodine-125 DMIPP was administered in 6% BSA solution to groups of fasted and fed rats. The animals were killed at time periods varying from 5 min to 8 h and selected tissues and aliquots of blood removed and analyzed in a gamma spectrometer.

in vivo = test: in vivo; design: species or system female Fischer rats; conditions: rat, iv; for tissue uptake at 5 min / tissue uptake at 0.5 h / tissue uptake at 1 h / tissue uptake at 2 h / tissue uptake at 4 h / tissue uptake at 8 h: distribution of radioactivity
Description: (§1) DISTRIBUTION OF RADIOACTIVITY
(% INJECTED DOSE/GRAM OF TISSUE) IN FASTED
(§2) RATS AT VARIOUS TIMES AFTER INTRAVENOUS ADMINISTRATION OF
(§3) 15-(p-[^125 I]IODOPHENYL)-3,3-DIMETHYLPENTADECANOIC ACID (DMIPP)
Mean and range values for five (5, 30 and 60 min) or four (2, 4 and 8 h)
female Fischer rats. Other tissues that were analyzed include spleen,
as §1
(% INJECTED DOSE/ORGAN OF TISSUE) IN FASTED
as §2, §3
Time after injection; Percent injected dose/organ (range)

[4] = rat, in vivo
Description: as §4

[5] = Myocardial retention after intravenous administration to unfasted rats; assay type: in vivo; conditions: first couple of hours after intravenous administration
Excerpt: Dimethyl branching was placed at the beta carbon to compare it with the monomethyl branched analogue and because of ease of synthesis. It is believed that dimethyl branching at the alpha carbon would give similar results.

With `CC(CCCCCCCCCCCCc1ccc([123I])cc1)CC(=O)O` (stereo not drawn) [BMIPP] the “effect of relative BMIPP/IPP mass ratios on biodistribution properties” value [1] was “insignificant effect”, the “initial uptake or "extraction" phase (myocardial)” value [2] was “very similar for these three agents” and the “loss (washout) from heart” value [3] was “approximately 40%”.
For `CC(C)(CCCCCCCCCCCCc1ccc(I)cc1)CC(=O)O` [DMIPP, 15-(p-iodophenyl)-3,3-dimethylpentadecanoic acid], the “Blood, distribution of radioactivity” value (in vivo; 5 min) was 8.47 % injected dose/organ, the “Heart, distribution of radioactivity” value (in vivo; 5 min) was 1.95 % injected dose/organ and the “Kidneys, distribution of radioactivity” value (in vivo; 5 min) was 1.45 % injected dose/organ. For the same compound, the “Liver, distribution of radioactivity” value (in vivo; 5 min) was 30.9 % injected dose/organ, the “Lungs, distribution of radioactivity” value (in vivo; 5 min) was 1.63 % injected dose/organ and the “Mean Heart:Blood” value (in vivo; 5 min) was 3:1. For the same compound, the “Thyroid, distribution of radioactivity” value (in vivo; 5 min) was 0.14 % injected dose/organ, the “Blood, distribution of radioactivity” value (in vivo; 30 min) was 2.30 % injected dose/organ and the “Heart, distribution of radioactivity” value (in vivo; 30 min) was 2.09 % injected dose/organ. For the same compound, the “Kidneys, distribution of radioactivity” value (in vivo; 30 min) was 1.49 % injected dose/organ, the “Liver, distribution of radioactivity” value (in vivo; 30 min) was 28.8 % injected dose/organ and the “Lungs, distribution of radioactivity” value (in vivo; 30 min) was 0.99 % injected dose/organ. The “Mean Heart:Blood” value (in vivo; 30 min) was 12:1, the “Thyroid, distribution of radioactivity” value (in vivo; 30 min) was 0.15 % injected dose/organ and the “Blood, distribution of radioactivity” value (in vivo; 60 min) was 2.41 % injected dose/organ. For the same compound, the “Heart, distribution of radioactivity” value (in vivo; 60 min) was 2.24 % injected dose/organ, the “Kidneys, distribution of radioactivity” value (in vivo; 60 min) was 1.51 % injected dose/organ and the “Liver, distribution of radioactivity” value (in vivo; 60 min) was 32.4 % injected dose/organ. For the same compound, the “Lungs, distribution of radioactivity” value (in vivo; 60 min) was 0.98 % injected dose/organ, the “Mean Heart:Blood” value (in vivo; 60 min) was 12.5:1 and the “Thyroid, distribution of radioactivity” value (in vivo; 60 min) was 0.11 % injected dose/organ. The “Blood, distribution of radioactivity” value (in vivo; 120 min) was 2.24 % injected dose/organ, the “Heart, distribution of radioactivity” value (in vivo; 120 min) was 1.99 % injected dose/organ and the “Kidneys, distribution of radioactivity” value (in vivo; 120 min) was 1.62 % injected dose/organ. For the same compound, the “Liver, distribution of radioactivity” value (in vivo; 120 min) was 22.8 % injected dose/organ, the “Lungs, distribution of radioactivity” value (in vivo; 120 min) was 0.87 % injected dose/organ and the “Mean Heart:Blood” value (in vivo; 120 min) was 12.6:1. The “Thyroid, distribution of radioactivity” value (in vivo; 120 min) was 0.17 % injected dose/organ, the “Blood, distribution of radioactivity” value (in vivo; 240 min) was 2.04 % injected dose/organ and the “Heart, distribution of radioactivity” value (in vivo; 240 min) was 1.56 % injected dose/organ. The “Kidneys, distribution of radioactivity” value (in vivo; 240 min) was 1.58 % injected dose/organ, the “Liver, distribution of radioactivity” value (in vivo; 240 min) was 16.7 % injected dose/organ and the “Lungs, distribution of radioactivity” value (in vivo; 240 min) was 1.77 % injected dose/organ. The “Mean Heart:Blood” value (in vivo; 240 min) was 11.2:1, the “Thyroid, distribution of radioactivity” value (in vivo; 240 min) was 0.22 % injected dose/organ and the “Blood, distribution of radioactivity” value (in vivo; 480 min) was 1.59 % injected dose/organ. The “Heart, distribution of radioactivity” value (in vivo; 480 min) was 1.05 % injected dose/organ, the “Kidneys, distribution of radioactivity” value (in vivo; 480 min) was 1.34 % injected dose/organ and the “Liver, distribution of radioactivity” value (in vivo; 480 min) was 11.4 % injected dose/organ. For the same compound, the “Lungs, distribution of radioactivity” value (in vivo; 480 min) was 0.66 % injected dose/organ, the “Mean Heart:Blood” value (in vivo; 480 min) was 9.3:1 and the “Thyroid, distribution of radioactivity” value (in vivo; 480 min) was 0.28 % injected dose/organ. It also gave a tissue uptake at 5 min (in vivo; Blood) of 1.48 %ID/g, a tissue uptake at 0.5 h (in vivo; Blood) of 0.42 %ID/g and a tissue uptake at 1 h (in vivo; Blood) of 0.36 %ID/g. The tissue uptake at 2 h (in vivo; Blood) was 0.35 %ID/g, the tissue uptake at 4 h (in vivo; Blood) was 0.31 %ID/g and the tissue uptake at 8 h (in vivo; Blood) was 0.24 %ID/g. The tissue uptake at 5 min (in vivo; Heart) was 4.67 %ID/g, the tissue uptake at 0.5 h (in vivo; Heart) was 5.06 %ID/g and the tissue uptake at 1 h (in vivo; Heart) was 4.49 %ID/g. The tissue uptake at 2 h (in vivo; Heart) was 4.37 %ID/g, the tissue uptake at 4 h (in vivo; Heart) was 3.53 %ID/g and the tissue uptake at 8 h (in vivo; Heart) was 2.24 %ID/g. It also gave a tissue uptake at 5 min (in vivo; Kidneys) of 1.39 %ID/g, a tissue uptake at 0.5 h (in vivo; Kidneys) of 1.47 %ID/g and a tissue uptake at 1 h (in vivo; Kidneys) of 1.46 %ID/g. For the same compound, the tissue uptake at 2 h (in vivo; Kidneys) was 1.41 %ID/g, the tissue uptake at 4 h (in vivo; Kidneys) was 1.39 %ID/g and the tissue uptake at 8 h (in vivo; Kidneys) was 1.19 %ID/g. For the same compound, the tissue uptake at 5 min (in vivo; Liver) was 7.73 %ID/g, the tissue uptake at 0.5 h (in vivo; Liver) was 7.3 %ID/g and the tissue uptake at 1 h (in vivo; Liver) was 6.02 %ID/g. It also gave a tissue uptake at 2 h (in vivo; Liver) of 5.32 %ID/g, a tissue uptake at 4 h (in vivo; Liver) of 3.56 %ID/g and a tissue uptake at 8 h (in vivo; Liver) of 2.52 %ID/g. For the same compound, the tissue uptake at 5 min (in vivo; Lungs) was 2.15 %ID/g, the tissue uptake at 0.5 h (in vivo; Lungs) was 1.42 %ID/g and the tissue uptake at 1 h (in vivo; Lungs) was 1.17 %ID/g. It also gave a tissue uptake at 2 h (in vivo; Lungs) of 1.12 %ID/g, a tissue uptake at 4 h (in vivo; Lungs) of 0.97 %ID/g and a tissue uptake at 8 h (in vivo; Lungs) of 0.79 %ID/g. It also gave a tissue uptake at 5 min (in vivo; Thyroid) of 16.7 %ID/g, a tissue uptake at 0.5 h (in vivo; Thyroid) of 18.5 %ID/g and a tissue uptake at 1 h (in vivo; Thyroid) of 15.8 %ID/g. It also gave a tissue uptake at 2 h (in vivo; Thyroid) of 17.9 %ID/g, a tissue uptake at 4 h (in vivo; Thyroid) of 22.9 %ID/g and a tissue uptake at 8 h (in vivo; Thyroid) of 27.8 %ID/g. For the same compound, the “initial uptake or "extraction" phase (myocardial)” value [2] was “very similar for these three agents”, the “retention and heart:blood ratios (triple label)” value ([2]; in comparison to BMIPP and IPP) was “greater retention and higher heart:blood ratios” and the heart-to-blood ratio [4] was 10/1. For the same compound, the “heart:blood ratios, in words” value [4] was “much higher heart:blood ratios”, the “loss (washout) from heart” value [4] was “approximately 24%” and the “myocardial retention, effect of dimethyl branching into the IPP molecule” value [4] was “substantial increase in the myocardial retention”. For the same compound, the myocardial uptake [4] was “high myocardial uptake”, the “radioiodine in the blood, effect of dimethyl branching into the IPP molecule” value [4] was “dramatic decrease of radioiodine in the blood” and the “retention in the heart” value [4] was “prolonged retention”. The “t1/2 (heart retention)” value [4] was 12 h, the “time it remained measurable (in the heart)” value [4] was “up to 12 hours” and the “mean heart:blood ratios” value ([4]; 15 min) was “greater than 10:1”. The myocardial retention [5] was “essentially irreversible myocardial retention”.
In the case of `O=C(O)CCCCCCCCCCCCCCc1ccc([125I])cc1` [IPP, reference compound], the “effect of relative BMIPP/IPP mass ratios on biodistribution properties” value [1] is reported as “insignificant effect” and the “initial uptake or "extraction" phase (myocardial)” value [2] is reported as “very similar for these three agents”.

Source: patent US4764358A, “Radiolabeled dimethyl branched long chain fatty acid for heart imaging” (The United States of America as represented by the United …, priority 1986, dated 1988)
